These results are taken from EPA's ToxRefDB 2.

Series [1] relates to dog. As to conditions: Subchronic oral toxicity in nonrodent, beagle, Feed, dose end: 90 day, group: systemic.
Series [2] concerns rat. The following applies: Carcinogenicity, fischer, Dermal, Topical, dose end: 105 week, group: systemic.
The test system of series [3] is dog. The following applies: Subchronic oral toxicity in nonrodent, beagle, Feed, dose end: 90 day, group: systemic, systemic / organ weight / ovary / relative to body weight + systemic / organ weight / thyroid gland / relative to body weight.
Series [4] concerns rat. As to conditions: Sub-acute dermal toxicity, fischer, Topical, dose end: 2 week, group: systemic, systemic / pathology microscopic / skin / hyperkeratosis + systemic / pathology microscopic / skin / hyperplasia + systemic / pathology ….
Series [5] concerns mouse. The following applies: Sub-acute dermal toxicity, b6c3f1, Topical, dose end: 2 week, group: systemic, systemic / pathology gross / skin / [other] + systemic / pathology gross / skin / thickened + systemic / pathology gross / skin / ulcer + ….
In series [6] the test system is rat. The following applies: Subchronic dermal toxicity, fischer, Topical, dose end: 14 week, group: systemic.
Series [7] relates to rat. As to conditions: Prenatal developmental toxicity study, sprague dawley, Oral, Gavage/Intubation, dose end: 15 GD.
Series [8] deals with dog. The following applies: Other (NonGuideline or Guideline Not Listed); beagle; Oral; Feed; dose end: 13 week; group: cannot be grouped; systemic / clinical chemistry / thyroxine (t4) / thyroxine (t4), total + systemic / clinical chemistry / triiodothyronine (t3) / ….
In series [9] the test system is mouse. The following applies: Carcinogenicity; b6c3f1; Dermal; Topical; dose end: 105 week; group: systemic; systemic / pathology microscopic / skin / hyperplasia + systemic / pathology microscopic / skin / inflammation.
The test system of series [10] is rat. The following applies: Sub-acute dermal toxicity, wistar, Topical, dose end: 21 day, group: systemic, systemic / in life observation / clinical signs / erythema + systemic / in life observation / clinical signs / skin ulceration + systemic / ….
In series [11] the test system is rat. The following applies: Other (NonGuideline or Guideline Not Listed), Oral, Feed, dose end: 111 PND, group: cannot be grouped.
Series [12] has as its system mouse. The following applies: Subchronic oral toxicity in rodents, b6c3f1, Dermal, Topical, dose end: 14 week, group: systemic.
In series [13] the test system is mouse. As to conditions: Combined chronic toxicity/carcinogenicity, cd1, Oral, Feed, dose end: 78 week, group: systemic.
The subject of series [14] is rat. The following applies: Combined chronic toxicity/carcinogenicity; sprague dawley; Oral; Feed; dose end: 24 month; group: systemic; systemic / in life observation / clinical signs / urine staining - perineum.
Series [15] concerns dog. The following applies: Chronic toxicity, beagle, Oral, Feed, dose end: 52 week, group: systemic.
Series [16] has as its system mouse. As to conditions: Carcinogenicity, b6c3f1, Oral, Gavage/Intubation, dose end: 103 week, group: systemic.
The subject of series [17] is rat. The following applies: Carcinogenicity; fischer; Oral; Gavage/Intubation; dose end: 103 week; group: systemic; systemic / in life observation / body weight / body weight.
The subject of series [18] is rat. As to conditions: Subchronic oral toxicity in rodents, fischer, Gavage/Intubation, dose end: 13 week, group: systemic.
The subject of series [19] is mouse. As to conditions: Subchronic oral toxicity in rodents, b6c3f1, Gavage/Intubation, dose end: 13 week, group: systemic, systemic / in life observation / body weight / body weight.
The test system of series [20] is dog. The following applies: Chronic toxicity; beagle; Oral; Capsule; dose end: 52 week; group: systemic; systemic / clinical chemistry / alanine aminotransferase (alt/sgpt) / alanine aminotransferase (alt/sgpt) + systemic / in life observation….
Series [21] deals with dog. As to conditions: Sub-acute repeat dose toxicity; beagle; Oral; Gavage/Intubation; dose end: 14 day; group: systemic; systemic / in life observation / clinical signs / abnormal feces.
Series [22] deals with rat. The following applies: Sub-acute repeat dose toxicity, sprague dawley, Oral, Gavage/Intubation, dose end: 14 day, group: systemic.
Series [23] has as its system rat. The following applies: Sub-acute repeat dose toxicity, Oral, Gavage/Intubation, dose end: 14 day, group: systemic.
Where [24] appears, read: systemic / pathology microscopic / kidney / pigmentation + systemic / pathology microscopic / spleen / hematopoietic cell proliferation.
The mark [25] stands for this setting: systemic / pathology gross / skin / [other] + systemic / pathology microscopic / skin / hyperkeratosis + systemic / pathology microscopic / ….
[26] abbreviates: systemic / pathology microscopic / skin / hyperkeratosis + systemic / pathology microscopic / skin / inflammation + systemic / pathology ….
The mark [27] stands for this setting: systemic / pathology microscopic / skin / hyperkeratosis.
Setting [28] is: systemic / pathology microscopic / skin / hyperkeratosis + systemic / pathology microscopic / skin / hyperplasia + systemic / pathology ….
The mark [29] stands for this setting: group: developmental, developmental / developmental malformation / [other] / [other].
Setting [30] is: group: maternal, systemic / in life observation / body weight / body weight gain + reproductive / reproductive performance / resorptions / resorptions.
Setting [31] is: systemic / in life observation / body weight / body weight gain + systemic / in life observation / food consumption / food consumption.
The mark [32] stands for this setting: systemic / in life observation / body weight / body weight gain + systemic / in life observation / food consumption / food consumption + ….
Setting [33] is: systemic / organ weight / lung / absolute + systemic / organ weight / lung / relative to body weight.
Setting [34] is: systemic / organ weight / lung / absolute + systemic / organ weight / lung / relative to body weight + systemic / organ weight / liver / ….
Setting [35] is: systemic / in life observation / body weight / body weight gain + systemic / in life observation / body weight / body weight + systemic / ….
The mark [36] stands for this setting: systemic / clinical chemistry / alanine aminotransferase (alt/sgpt) / alanine aminotransferase (alt/sgpt) + systemic / clinical chemistry / ….
Where [37] appears, read: systemic / organ weight / liver / absolute.
[38] abbreviates: systemic / pathology microscopic / liver / hypertrophy + systemic / pathology microscopic / liver / necrosis + systemic / pathology ….
The mark [39] stands for this setting: systemic / in life observation / body weight / body weight + systemic / in life observation / mortality / mortality + systemic / pathology ….
The mark [40] stands for this setting: systemic / clinical chemistry / glucose / glucose + systemic / clinical chemistry / urea nitrogen / urea nitrogen + systemic / clinical ….
Where [41] appears, read: systemic / in life observation / clinical signs / salivation.
Where [42] appears, read: systemic / in life observation / clinical signs / urine staining - perineum + systemic / in life observation / clinical signs / salivation.

For the compound `N#CCCC(Br)(C#N)CBr` (centres undefined) [1,2-Dibromo-2,4-dicyanobutane], the LOAEL (as a rule, the lowest tested level that showed an adverse finding) in series [1] (systemic / in life observation / clinical signs / defecation (diarrhea) + systemic / in life observation / clinical signs / emesis) came to 3.11 mg/kg/day; in [2] (setting [25]), 6 mg/kg/day; in series [3] it was 4.17 mg/kg/day; in [4] it was 37.5 mg/kg/day; in [5], 75 mg/kg/day; in series [6] (setting [28]), 2 mg/kg/day. The lowest observed adverse effect level (LOAEL) stood at 100 mg/kg/day in [7] (setting [29]); 100 mg/kg/day in series [7] (setting [30]); 4.17 mg/kg/day in series [8]; 0.6 mg/kg/day in series [9]; 1000 mg/kg/day in series [10]; 25 mg/kg/day in series [11] (setting [32]). The lowest observed adverse effect level (LOAEL) in [12] (setting [34]) was > 18 mg/kg/day. Moreover, the NOAEL (as a rule, the highest dose or exposure tested at which no adverse effect was seen) was 0.331 mg/kg/day in series [1] (systemic / in life observation / clinical signs / defecation (diarrhea) + systemic / in life observation / clinical signs / emesis + …); 2 mg/kg/day in [2] (setting [25]); < 4.17 mg/kg/day in [3]; < 37.5 mg/kg/day in [4]; < 75 mg/kg/day in [5]; 0.6 mg/kg/day in [6] (setting [28]). The NOAEL in series [7] (setting [29]) was 25 mg/kg/day; in series [7] (setting [30]), 25 mg/kg/day; in [8] it was < 4.17 mg/kg/day; in series [9], < 0.6 mg/kg/day; in series [10] it was < 1000 mg/kg/day; in [11] (setting [31]), 4.17 mg/kg/day. In series [12] (setting [34]), the no-observed-adverse-effect level (NOAEL) is ≥ 18 mg/kg/day. The LEL stood at 0.288 mg/kg/day in series [1] (setting [24]); 2 mg/kg/day in [2] (setting [26]); 4.17 mg/kg/day in series [3]; 37.5 mg/kg/day in [4]; 75 mg/kg/day in series [5]; 0.2 mg/kg/day in series [6] (setting [27]). For the same compound, the LEL in series [7] (setting [29]) is 100 mg/kg/day; in series [7] (setting [30]) it was 100 mg/kg/day; in series [8] it was 4.17 mg/kg/day; in series [9] it was 0.6 mg/kg/day; in [10] it was 1000 mg/kg/day; in series [11] (setting [32]), 25 mg/kg/day. Besides, the LEL in series [12] (setting [33]) worked out at 0.2 mg/kg/day. The NEL in series [1] (setting [24]) was < 0.288 mg/kg/day; in series [2] (setting [26]), < 2 mg/kg/day; in series [3], < 4.17 mg/kg/day; in series [4], < 37.5 mg/kg/day; in series [5] it was < 75 mg/kg/day; in [6] (setting [27]), < 0.2 mg/kg/day. Moreover, the NEL in series [7] (setting [29]) was 25 mg/kg/day; in series [7] (setting [30]), 25 mg/kg/day; in [8] it was < 4.17 mg/kg/day; in series [9], < 0.6 mg/kg/day; in [10], < 1000 mg/kg/day; in [11] (setting [31]), 4.17 mg/kg/day. Further, the NEL in series [12] (setting [33]) was < 0.2 mg/kg/day.

For the compound `CC(C)C1(C)N=C(c2nc3ccccc3cc2C(=O)O)NC1=O` (centres undefined) [Imazaquin], the LOAEL in series [13] (systemic / in life observation / body weight / body weight gain) is 600 mg/kg/day; in series [14], > 500 mg/kg/day; in [15] (setting [36]), 125 mg/kg/day. In addition, the LEL in series [13] (setting [35]) was 600 mg/kg/day; in series [14] it was 500 mg/kg/day; in [15] (setting [37]) it was 5 mg/kg/day. In addition, the results for the NEL in [13] (setting [35]), in series [14] and in series [15] (setting [37]) were 150 mg/kg/day, 250 mg/kg/day and < 5 mg/kg/day, respectively. Further, the results for the NOAEL in series [13] (setting [35]), in series [14] and in series [15] (setting [36]) were 150 mg/kg/day, ≥ 500 mg/kg/day and 25 mg/kg/day, respectively.

As for `CC(Cl)CCl` (centres undefined) [1,2-Dichloropropane], the LOAEL was 250 mg/kg/day in series [16] (systemic / pathology microscopic / liver / hypertrophy + systemic / pathology microscopic / liver / necrosis), 125 mg/kg/day in [17], > 1000 mg/kg/day in series [18] (setting [39]) and 500 mg/kg/day in [19]. Moreover, the LEL in series [16] (setting [38]) came out at 125 mg/kg/day; in series [17] it was 62 mg/kg/day; in series [18] (systemic / in life observation / body weight / body weight + systemic / in life observation / mortality / mortality) it was 500 mg/kg/day; in series [19], 30 mg/kg/day. The NEL is < 125 mg/kg/day in series [16] (setting [38]), < 62 mg/kg/day in series [17], 250 mg/kg/day in series [18] (setting [39]) and < 30 mg/kg/day in [19]. The NOAEL in series [16] (setting [38]) is 125 mg/kg/day; in [18] (setting [39]), ≥ 1000 mg/kg/day; in series [19] it was 250 mg/kg/day.

As for `CNC(=O)N(C)c1nnc(C(C)(C)C)s1` [Tebuthiuron], in series [20], the LEL was found to be 50 mg/kg/day, the lowest observed adverse effect level (LOAEL) amounted to 50 mg/kg/day, the NEL was 25 mg/kg/day and the NOAEL is 25 mg/kg/day.

With `O=C(O)CCN(C1(C(=O)NO)CCCC1)S(=O)(=O)c1ccc(Oc2ccc(F)cc2)cc1`, the LEL in series [21] turned out to be 250 mg/kg/day; in series [22] (systemic / clinical chemistry / glucose / glucose + systemic / clinical chemistry / urea nitrogen / urea nitrogen), 150 mg/kg/day; in series [23] (setting [41]), 300 mg/kg/day. In addition, the figures for the LOAEL in series [21], in [22] (setting [40]) and in [23] (setting [42]) were > 250 mg/kg/day, > 500 mg/kg/day and > 500 mg/kg/day, respectively. Further, the NEL in [21] was 50 mg/kg/day; in series [23] (setting [41]), < 300 mg/kg/day. Further, the no observed adverse effect level (NOAEL) is ≥ 250 mg/kg/day in [21], ≥ 500 mg/kg/day in [22] (setting [40]) and ≥ 500 mg/kg/day in series [23] (setting [42]).
